Assay results from patent US20080166805A1, “Culturing human cells and tissues in an N-glycolylneuraminic acid-free environment” (The Regents of the University of California, priority 2005, published 2008).

Tests used:
[1] = tested on: Caco-2 cells; experiment: Neu5Gc and ManNGc feeding experiment, Caco-2 cells (fractionation, DMB-HPLC); assay type: cell-based; settings: Caco-2 cells fed 3 mM for 3 days, grown in human serum
Method: Cell Culture—Caco-2 cells were propagated in alpha-MEM containing GLUTAMAX™ (Invitrogen, San Diego, Calif.) and a mixture of ribonucleosides and deoxyribonucleosides (Gibco/Invitrogen, San Diego, Calif.) supplemented with 20% FCS. All the fibroblast cell lines and CHO-K1 cells were cultured in the same media supplemented respectively with 15% non-heat inactivated FCS or 10% heat inactivated FCS. Chimpanzee Fred and human […] EBV-transformed lymphoblasts were cultured in RPMI-1640 (Gibco/Invitrogen, San Diego, Calif.) supplemented with 10% heat inactivated FCS or 15% human serum. All of the cultures were maintained at 37° C., 5% CO2 atmosphere. In order to deplete any remaining Neu5Gc from FCS, the cells were split and cultured prior to Neu5Gc feeding experiments for at least 4 days in alpha-MEM supplemented with an adequate percentage of heat-inactivated premium human serum instead of FCS. The cells were then maintained under the same conditions during the whole feeding experiment. The human serum was heat inactivated at 56° C. for 30 min. before use. […]
(§1) Fractionation of the Labeled Cells—Washed cell pellets were sonicated into 500 μL of 20 mM sodium phosphate buffer or 20 mM Tris-HCl, pH 7.5, using 4×15 second pulses of a sonicator cell disrupter, model Some Dismembrator (Fisher Scientific, Hampton, N.J.) at a probe setting of 3. […] The pellet contained <5% of the incorporated sialic acid as determined using a radioactive tracer (data not shown.) The supernatant was therefore considered as the “total homogenate” fraction. A portion (20%) of the “total homogenate” fraction was taken for protein quantification and Sia analysis by DMB derivatization and HPLC analysis (as discussed below.) The remainder was centrifuged at 100,000×g for 1 h. […] All the Sias in these fractions were released with mild acid hydrolysis if necessary and then analyzed by HPLC after DMB derivatization. […]

[2] = tested on: human neuroblastoma cells; experiment: Neu5Gc feeding experiment, human neuroblastoma cells; assay type: cell-based; settings: neuroblastoma cells fed 3 mM for 3 days
Method: (§2) Neu5Gc and ManNGc Feeding Experiment—Neu5Ac, Neu5Gc or ManNGc were dried, dissolved in the appropriate media supplemented with heat-inactivated human serum, sterilized using a Spin-X® (Corning Inc., Corning, N.Y.) and then added to the cells. The pH of the media containing Sia was adjusted to neutrality using sterilized 1M NaOH before starting the feeding experiment. Cells were cultured in the presence of up to 3 mM free Sia or ManNGc for 1 or 3 days at 37° C. At the end of the feeding, cells were washed with cold PBS, harvested either by scraping or with 2 mM EDTA for fibroblasts, and washed again with cold PBS prior to fractionation.
Fractionation of the Labeled Cells—Washed cell pellets were sonicated into 500 μL of 20 mM sodium phosphate buffer or 20 mM Tris-HCl, pH 7.5, using 4×15 second pulses of a sonicator cell disrupter, model Some Dismembrator (Fisher Scientific, Hampton, N.J.) at a probe setting of 3. […] The pellet contained <5% of the incorporated sialic acid as determined using a radioactive tracer (data not shown.) The supernatant was therefore considered as the “total homogenate” fraction. A portion (20%) of the “total homogenate” fraction was taken for protein quantification and Sia analysis by DMB derivatization and HPLC analysis (as discussed below.) The remainder was centrifuged at 100,000×g for 1 h. […]

[3] = tested on: lysosomal sialic acid transporter mutant human fibroblasts (GM05520); experiment: Neu5Gc/ManNGc feeding, lysosomal sialic acid transporter mutant fibroblasts GM05520; assay type: cell-based; settings: GM05520 (ISSD) fibroblasts fed 3 mM for 3 days
Text: (§3) Cell Lines—Caco-2 cells (human epithelial cells isolated from a primary colon carcinoma), normal human skin fibroblasts (CCD-919-SK) and chinese hamster ovary (CHO-K1) cells were purchased from ATCC (Manassas, Va.) Mutant human skin fibroblasts (GM05520, GM08496 and GM01718) were obtained from the Coriell Institute for Medical Research (Camden, N.J.) Chimpanzee Fred and human […] EBV-transformed lymphoblasts were a gift from Dr. Peter Parham, Stanford University, CA. […]
as §1

[4] = tested on: chimpanzee lymphoblasts; experiment: Neu5Gc/Neu5Ac feeding experiment, chimpanzee EBV-transformed lymphoblasts; assay type: cell-based; settings: chimpanzee lymphoblasts fed 3 mM for 3 days
Method: Cell Culture—Caco-2 cells were propagated in alpha-MEM containing GLUTAMAX™ (Invitrogen, San Diego, Calif.) and a mixture of ribonucleosides and deoxyribonucleosides (Gibco/Invitrogen, San Diego, Calif.) supplemented with 20% FCS. All the fibroblast cell lines and CHO-K1 cells were cultured in the same media supplemented respectively with 15% non-heat inactivated FCS or 10% heat inactivated FCS. Chimpanzee Fred and human […] EBV-transformed lymphoblasts were cultured in RPMI-1640 (Gibco/Invitrogen, San Diego, Calif.) supplemented with 10% heat inactivated FCS or 15% human serum. All of the cultures were maintained at 37° C., 5% CO2 atmosphere. In order to deplete any remaining Neu5Gc from FCS, the cells were split and cultured prior to Neu5Gc feeding experiments for at least 4 days in alpha-MEM supplemented with an adequate percentage of heat-inactivated premium human serum instead of FCS. The cells were then maintained under the same conditions during the whole feeding experiment. The human serum was heat inactivated at 56° C. for 30 min. before use.
as §2, with “At the end of the feeding, cells were washed with cold PBS, harvested either by scraping or with 2 mM EDTA for fibroblasts, and washed again with cold PBS prior to fractionation.” left out
Fractionation of the Labeled Cells—Washed cell pellets were sonicated into 500 μL of 20 mM sodium phosphate buffer or 20 mM Tris-HCl, pH 7.5, using 4×15 second pulses of a sonicator cell disrupter, model Some Dismembrator (Fisher Scientific, Hampton, N.J.) at a probe setting of 3. […] The pellet contained <5% of the incorporated sialic acid as determined using a radioactive tracer (data not shown.) The supernatant was therefore considered as the “total homogenate” fraction. A portion (20%) of the “total homogenate” fraction was taken for protein quantification and Sia analysis by DMB derivatization and HPLC analysis (as discussed below.) The remainder was centrifuged at 100,000×g for 1 h. […] All the Sias in these fractions were released with mild acid hydrolysis if necessary and then analyzed by HPLC after DMB derivatization. Protein quantification was performed on the total homogenate, membrane and soluble protein fractions by using the BCA protein assay kit from Pierce (Rockford, Ill.) In some experiments, the resulting data obtained for the Sia bound to the membrane fraction and to the soluble proteins were pooled and presented here as a High Molecular Weight (HMW) fraction. […]

[5] = tested on: Caco-2 cells; experiment: Endocytosis inhibition experiments (Neu5Gc uptake in Caco-2 cells); assay type: cell-based, human; settings: 3 mM Neu5Gc, no inhibitor
Method: The sonicate was centrifuged at 75×g for 15 min., and the pellet obtained consisted primarily of nuclei and unbroken cells. […] A portion (20%) of the “total homogenate” fraction was taken for protein quantification and Sia analysis by DMB derivatization and HPLC analysis (as discussed below.) The remainder was centrifuged at 100,000×g for 1 h. The resulting pellet, called the “membrane” fraction, was then resuspended by sonication (15 sec.) in 200 μl of sodium acetate buffer, pH 5.5. The 100,000×g supernatant, called the “soluble” fraction was adjusted to 90% ethanol using absolute ice-cold ethanol, and placed overnight at −20° C. The flocculant precipitate, which represents the “soluble protein” fraction, was washed 3 times with 90% ice-cold ethanol and then resuspended in 200 μl of water. The supernatant fluid representing the cytosolic low molecular weight (LMW) fraction was dried and brought up in 100 μL with water prior to Sia analysis. All the Sias in these fractions were released with mild acid hydrolysis if necessary and then analyzed by HPLC after DMB derivatization. Protein quantification was performed on the total homogenate, membrane and soluble protein fractions by using the BCA protein assay kit from Pierce (Rockford, Ill.) In some experiments, the resulting data obtained for the Sia bound to the membrane fraction and to the soluble proteins were pooled and presented here as a High Molecular Weight (HMW) fraction. Sialic Acid Release, DMB Derivatization and HPLC Analysis—The bound Sias from the total homogenate, membrane and soluble protein fractions were released using 2M acetic acid hydrolysis, 3 h. at 80° C. The released Sias, or free Sias, contained in the soluble LMW fraction were passed through a Microcon® YM-10 filter (Millipore, Bedford, Mass.) prior to DMB derivatization, which was done according to Hara et al., 1989. […] The eluant was monitored by fluorescence. Quantification of Sias—For all HPLC chromatograms, the quantification of Sias was done by comparison with known quantities of DMB derivatized Neu5Gc and Neu5Ac used as standards and then reported in terms of pmoles of Sia. For total homogenate, membrane and cytosolic protein fractions, this number was expressed per mg of protein. Due to minor sample-to-sample variations in amounts and recoveries, the data in the Figures is presented as percent of Neu5Gc over total Sias, rather than as absolute amounts. Endocytosis Inhibition Experiments—Caco-2 or normal fibroblast cells were split and cultured in alpha-MEM media supplemented respectively with 20% or 15% human serum for 4 days before starting the endocytosis drug inhibition experiments in order to deplete any Neu5Gc derived from FCS. Cells were then pre-treated for 2 h. with the specific inhibitors under the same culture conditions. Fresh media containing the same amount of inhibitor and 3 mM of Neu5Gc was then added to the cells, which were incubated for 16 h or 3 days and finally harvested and fractionated as described above.

[6] = tested on: lysosomal sialic acid transporter mutant human fibroblasts (GM08496); experiment: Neu5Gc/ManNGc feeding, lysosomal sialic acid transporter mutant fibroblasts GM08496; assay type: cell-based; settings: GM08496 (Salla disease) fibroblasts fed 3 mM for 3 days
Text: as §3, §1

O=C(CO)N[C@H]1[C@H]([C@H](O)[C@H](O)CO)OC(O)(C(=O)O)C[C@@H]1O (stereo partly shown) [Neu5Gc, N-glycolylneuraminic acid]
Neu5Gc as percent of total Sia, cytosolic low molecular weight (LMW) fraction [1]: 70%
Neu5Gc as percent of total Sia, high molecular weight fraction (HMW) [1]: 46%
Neu5Gc as percent of total Sia, total homogenate (TH) [1]: 58%
Neu5Gc incorporation efficiency [2]: efficiency comparable to the Caco-2 cells
percent of Neu5Gc in membrane-bound glycoconjugates [3]: 5%
Neu5Gc as percent of total Sia, TH fraction ([4]; non-fed baseline 57%): 70%
Neu5Gc as percent of total Sia, HMW fraction ([4]; non-fed baseline 66%): 72%
Neu5Gc as percent of total Sia, LMW fraction ([4]; non-fed baseline 70%): 84%
Neu5Gc incorporation into membrane-bound glycoconjugates without inhibitor (percent of total Sia) [5]: 45%
percent of Neu5Gc in membrane-bound glycoconjugates [6]: 16%
